Reference: PubChem BioAssay (NCI)
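A five-concentration, 48-hour dose response in 96-well plates underlies each endpoint, interpolated linearly between surrounding concentrations. The concentration for full growth arrest is given as TGI.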

Key:
Experiment in all cases: inhibition of tumour cell growth, NCI panel, 48 h
HCT-15 colon = system: HCT-15 colon
KM12 colon = system: KM12 colon
UACC-62 melanoma = system: UACC-62 melanoma
SR leukemia = system: SR leukemia
DMS 114 small cell lung = system: DMS 114 small cell lung
MALME-3M melanoma = system: MALME-3M melanoma
SNB-78 CNS = system: SNB-78 CNS
HT29 colon = system: HT29 colon
A498 renal = system: A498 renal
RPMI-8226 leukemia = system: RPMI-8226 leukemia
A549 NSCLC = system: A549 NSCLC
HCC-2998 colon = system: HCC-2998 colon
HL-60(TB) leukemia = system: HL-60(TB) leukemia
COLO 205 colon = system: COLO 205 colon
SF-539 CNS = system: SF-539 CNS
TK-10 renal = system: TK-10 renal
UO-31 renal = system: UO-31 renal
SK-MEL-28 melanoma = system: SK-MEL-28 melanoma
SK-MEL-2 melanoma = system: SK-MEL-2 melanoma
NCI-H226 lung = system: NCI-H226 lung
XF 498 CNS = system: XF 498 CNS
SNB-19 CNS = system: SNB-19 CNS
NCI-H460 lung = system: NCI-H460 lung
HCT-116 colon = system: HCT-116 colon
U251 CNS = system: U251 CNS
DMS 273 small cell lung = system: DMS 273 small cell lung
SK-MEL-5 melanoma = system: SK-MEL-5 melanoma
HOP-92 NSCLC = system: HOP-92 NSCLC
SN12C renal = system: SN12C renal
ACHN renal = system: ACHN renal
CCRF-CEM leukemia = system: CCRF-CEM leukemia
OVCAR-3 ovarian = system: OVCAR-3 ovarian
M14 melanoma = system: M14 melanoma
NCI-H522 lung = system: NCI-H522 lung
SF-295 CNS = system: SF-295 CNS
OVCAR-5 ovarian = system: OVCAR-5 ovarian
HOP-62 NSCLC = system: HOP-62 NSCLC
EKVX NSCLC = system: EKVX NSCLC
786-0 renal = system: 786-0 renal
M19-MEL melanoma = system: M19-MEL melanoma
SNB-75 CNS = system: SNB-75 CNS
SW-620 colon = system: SW-620 colon
SK-OV-3 ovarian = system: SK-OV-3 ovarian
LXFL 529 NSCLC = system: LXFL 529 NSCLC
LOX IMVI melanoma = system: LOX IMVI melanoma
UACC-257 melanoma = system: UACC-257 melanoma
OVCAR-4 ovarian = system: OVCAR-4 ovarian
RXF-631 renal = system: RXF-631 renal
MOLT-4 leukemia = system: MOLT-4 leukemia
OVCAR-8 ovarian = system: OVCAR-8 ovarian
DLD-1 colon = system: DLD-1 colon
K-562 leukemia = system: K-562 leukemia
RXF 393 renal = system: RXF 393 renal
NCI-H23 lung = system: NCI-H23 lung
IGROV1 ovarian = system: IGROV1 ovarian
SF-268 CNS = system: SF-268 CNS
CAKI-1 renal = system: CAKI-1 renal
KM20L2 colon = system: KM20L2 colon

Work on `COc1ccc(O)c2c(=O)ccccc12` yielded a TGI (HCT-15 colon) of over 100 µM, a TGI (KM12 colon) of over 100 µM and a TGI (UACC-62 melanoma) of over 100 µM. It also gave a TGI (SR leukemia) of over 100 µM, a TGI (DMS 114 small cell lung) of over 100 µM and a TGI (MALME-3M melanoma) of over 100 µM. For the same compound, the TGI (SNB-78 CNS) was over 100 µM, the TGI (HT29 colon) was over 100 µM and the TGI (A498 renal) was over 100 µM. For the same compound, the TGI (RPMI-8226 leukemia) was over 100 µM, the TGI (A549 NSCLC) was over 100 µM and the TGI (HCC-2998 colon) was over 100 µM. The TGI (HL-60(TB) leukemia) was over 100 µM, the TGI (COLO 205 colon) was over 100 µM and the TGI (SF-539 CNS) was over 100 µM. The TGI (TK-10 renal) was 60 µM, the TGI (UO-31 renal) was over 100 µM and the TGI (SK-MEL-28 melanoma) was over 100 µM. It also gave a TGI (SK-MEL-2 melanoma) of over 100 µM, a TGI (NCI-H226 lung) of over 100 µM and a TGI (XF 498 CNS) of over 100 µM. The TGI (SNB-19 CNS) was over 100 µM, the TGI (NCI-H460 lung) was over 100 µM and the TGI (HCT-116 colon) was over 100 µM. It also gave a TGI (U251 CNS) of over 100 µM, a TGI (DMS 273 small cell lung) of over 100 µM and a TGI (SK-MEL-5 melanoma) of over 100 µM. It also gave a TGI (HOP-92 NSCLC) of over 100 µM, a TGI (SN12C renal) of over 100 µM and a TGI (ACHN renal) of over 100 µM. For the same compound, the TGI (CCRF-CEM leukemia) was over 100 µM, the TGI (OVCAR-3 ovarian) was over 100 µM and the TGI (M14 melanoma) was over 100 µM. For the same compound, the TGI (NCI-H522 lung) was 91.7 µM, the TGI (SF-295 CNS) was over 100 µM and the TGI (OVCAR-5 ovarian) was over 100 µM. It also gave a TGI (HOP-62 NSCLC) of over 100 µM, a TGI (EKVX NSCLC) of over 100 µM and a TGI (786-0 renal) of over 100 µM. For the same compound, the TGI (M19-MEL melanoma) was over 100 µM, the TGI (SNB-75 CNS) was over 100 µM and the TGI (SW-620 colon) was over 100 µM. It also gave a TGI (SK-OV-3 ovarian) of over 100 µM, a TGI (LXFL 529 NSCLC) of over 100 µM and a TGI (LOX IMVI melanoma) of over 100 µM. The TGI (UACC-257 melanoma) was over 100 µM, the TGI (OVCAR-4 ovarian) was over 100 µM and the TGI (RXF-631 renal) was over 100 µM. It also gave a TGI (MOLT-4 leukemia) of over 100 µM, a TGI (OVCAR-8 ovarian) of over 100 µM and a TGI (DLD-1 colon) of over 100 µM. The TGI (K-562 leukemia) was over 100 µM, the TGI (RXF 393 renal) was over 100 µM and the TGI (NCI-H23 lung) was over 100 µM. For the same compound, the TGI (IGROV1 ovarian) was over 100 µM and the TGI (SF-268 CNS) was over 100 µM.

In the case of `CC1C=CC(O)[C@]2(CO)CC3(CCC12)OCCO3` (stereo not given in full), the TGI (KM12 colon) is reported as over 100 µM, the TGI (UACC-62 melanoma) is reported as over 100 µM and the TGI (SR leukemia) is reported as over 100 µM. It also gave a TGI (DMS 114 small cell lung) of over 100 µM, a TGI (MALME-3M melanoma) of over 100 µM and a TGI (SNB-78 CNS) of over 100 µM. The TGI (HT29 colon) was over 100 µM, the TGI (A498 renal) was over 100 µM and the TGI (A549 NSCLC) was over 100 µM. The TGI (HCC-2998 colon) was over 100 µM, the TGI (HL-60(TB) leukemia) was over 100 µM and the TGI (SF-539 CNS) was over 100 µM. For the same compound, the TGI (TK-10 renal) was over 100 µM, the TGI (UO-31 renal) was over 100 µM and the TGI (SK-MEL-28 melanoma) was over 100 µM. It also gave a TGI (SK-MEL-2 melanoma) of over 100 µM, a TGI (NCI-H226 lung) of over 100 µM and a TGI (XF 498 CNS) of over 100 µM. The TGI (SNB-19 CNS) was over 100 µM, the TGI (NCI-H460 lung) was over 100 µM and the TGI (HCT-116 colon) was over 100 µM. It also gave a TGI (U251 CNS) of over 100 µM, a TGI (CAKI-1 renal) of over 100 µM and a TGI (DMS 273 small cell lung) of over 100 µM. It also gave a TGI (SK-MEL-5 melanoma) of over 100 µM, a TGI (HOP-92 NSCLC) of over 100 µM and a TGI (SN12C renal) of over 100 µM. It also gave a TGI (ACHN renal) of over 100 µM, a TGI (CCRF-CEM leukemia) of over 100 µM and a TGI (KM20L2 colon) of over 100 µM. It also gave a TGI (OVCAR-3 ovarian) of over 100 µM, a TGI (M14 melanoma) of over 100 µM and a TGI (NCI-H522 lung) of over 100 µM. For the same compound, the TGI (SF-295 CNS) was over 100 µM, the TGI (OVCAR-5 ovarian) was over 100 µM and the TGI (HOP-62 NSCLC) was over 100 µM. It also gave a TGI (EKVX NSCLC) of over 100 µM, a TGI (786-0 renal) of over 100 µM and a TGI (M19-MEL melanoma) of over 100 µM. For the same compound, the TGI (SNB-75 CNS) was over 100 µM, the TGI (SW-620 colon) was over 100 µM and the TGI (SK-OV-3 ovarian) was over 100 µM. It also gave a TGI (LXFL 529 NSCLC) of over 100 µM, a TGI (UACC-257 melanoma) of over 100 µM and a TGI (OVCAR-4 ovarian) of over 100 µM. For the same compound, the TGI (RXF-631 renal) was over 100 µM, the TGI (MOLT-4 leukemia) was over 100 µM and the TGI (OVCAR-8 ovarian) was over 100 µM. For the same compound, the TGI (DLD-1 colon) was over 100 µM, the TGI (K-562 leukemia) was over 100 µM and the TGI (RXF 393 renal) was over 100 µM. The TGI (NCI-H23 lung) was over 100 µM, the TGI (IGROV1 ovarian) was over 100 µM and the TGI (SF-268 CNS) was over 100 µM.
